Data published in ChEMBL document CHEMBL6096677, “Discovery of HZS60 as a Novel Brain Penetrant NMDAR/TRPM4 Interaction Interface Inhibitor with Improved Activity and Pharmacokinetic Properties for the Treatment of Cerebral Ischemia” (J Med Chem, 2025).

Tests used:
Cortical neurone [1] = test: Neuroprotective activity against NMDA-induced excitotoxic cell death in C57BL/6 mouse primary cortical neurons assessed as cell viability at 10 uM by CCK8 assay (reference value: 16.31 +/- 3.19 %); type: functional; details: C57BL/6, Cortical neurone, read-out: Activity
Cortical neurone [2] = test: Neuroprotective activity against OGD/R-induced ischemic injury in C57BL/6 mouse primary cortical neurons assessed as cell viability at 10 uM by CCK8 assay (reference value: 21.96 +/- 10.86 %); type: functional; details: C57BL/6, Cortical neurone, read-out: Activity
[3] = MRT (0 to t) in ICR mouse at 5 mg/kg, iv by LC-MS/MS analysis; type: ADME, organism-based; details: in vivo
[4] = AUC (0 to infinity) in ICR mouse at 5 mg/kg, iv by LC-MS/MS analysis; type: ADME, organism-based; details: in vivo
[5] = MRT (0 to t) in ICR mouse at 25 mg/kg, IG by LC-MS/MS analysis; type: ADME, organism-based; details: in vivo, po
[6] = Cmax in ICR mouse at 25 mg/kg, IG by LC-MS/MS analysis; type: ADME, organism-based; details: in vivo, po
[7] = Oral bioavailability in ICR mouse at 25 mg/kg by LC-MS/MS analysis; type: ADME, organism-based; details: in vivo
[8] = Half life in ICR mouse at 5 mg/kg, iv by LC-MS/MS analysis; type: ADME, organism-based; details: in vivo
[9] = AUC (0 to t) in ICR mouse at 25 mg/kg, IG by LC-MS/MS analysis; type: ADME, organism-based; details: in vivo, po
[10] = AUC (0 to t) in ICR mouse at 5 mg/kg, iv by LC-MS/MS analysis; type: ADME, organism-based; details: in vivo
[11] = Apparent volume of distribution in ICR mouse at 5 mg/kg, iv by LC-MS/MS analysis; type: ADME, organism-based; details: in vivo, read-out: Vz
[12] = Half life in ICR mouse at 25 mg/kg, IG by LC-MS/MS analysis; type: ADME, organism-based; details: in vivo, po
[13] = Clearance in ICR mouse at 5 mg/kg, iv by LC-MS/MS analysis; type: ADME, organism-based; details: in vivo
[14] = MRT (0 to infinity) in ICR mouse at 25 mg/kg, IG by LC-MS/MS analysis; type: ADME, organism-based; details: in vivo, po
[15] = Tmax in ICR mouse at 5 mg/kg, iv by LC-MS/MS analysis; type: ADME, organism-based; details: in vivo
[16] = AUC (0 to infinity) in ICR mouse at 25 mg/kg, IG by LC-MS/MS analysis; type: ADME, organism-based; details: in vivo, po
[17] = Cmax in ICR mouse at 5 mg/kg, iv by LC-MS/MS analysis; type: ADME, organism-based; details: in vivo
[18] = MRT (0 to infinity) in ICR mouse at 5 mg/kg, iv by LC-MS/MS analysis; type: ADME, organism-based; details: in vivo
[19] = Tmax in ICR mouse at 25 mg/kg, IG by LC-MS/MS analysis; type: ADME, organism-based; details: in vivo, po

Row | SMILES | viability at 10 µM (Cortical neurone [1]) | further results
1 | CCN(CCN)C(C)c1cc(Br)ccc1F (configuration not stated) | 90.7% | viability at 10 µM (Cortical neurone [2]): 36.6%
2 | CCN(CCN)C(C)c1cccc(Br)c1 (configuration not stated) | 95.9% | viability at 10 µM (Cortical neurone [2]): 53.2%
3 | CCN(CCN)Cc1cccc(C#N)c1 | 92.4% | 
4 | CCN(CCN)Cc1cc(Br)cc(C#N)c1 | 33% | 
5 | CCN(CCN)Cc1cccc(Br)c1I | 11.5% | 
6 | CCN(CCN)Cc1cccc(C)c1 | 22.7% | 
7 | CCN(CCN)Cc1cccc(-c2ccccc2)c1 | 24.9% | 
8 | CCN(CCN)C(C)c1cccc(C#N)c1Cl (configuration not stated) | 85.3% | viability at 10 µM (Cortical neurone [2]): 59.8%
9 | CCC(c1cccc(Br)c1)N(CC)CCN (configuration not stated) | 38.3% | 
10 | CCN(CCN)C(C)c1cc(Br)ccc1Br (configuration not stated) | 46.6% | 
11 | CCN(CCN)Cc1ccc(Br)c(C#N)c1 | 22.2% | 
12 | CCN(CCN)Cc1cccc(OC)c1 | 39.6% | 
13 | CCN(CCN)Cc1cccc(Br)c1 | 63.2% | MRT last [3]: 1.76 h; AUC(0-inf) [4]: 295 ng·h/mL; MRT last [5]: 2.38 h; Cmax [6]: 348 ng/mL; bioavailability [7]: 66.4%; half-life [8]: 1.82 h; AUC(0-t) [9]: 914 ng·h/mL; AUC(0-t) [10]: 282 ng·h/mL; Vd [11]: 44.1 L/kg; half-life [12]: 2.07 h; clearance [13]: 293 mL/min/kg; MRT inf [14]: 2.96 h; Tmax [15]: 4.98 min; viability at 10 µM (Cortical neurone [2]): 26.5%; AUC(0-inf) [16]: 980 ng·h/mL; Cmax [17]: 207 ng/mL; MRT inf [18]: 2.15 h; Tmax [19]: 0.583 h
14 | CCN(CCN)Cc1ccccc1Br | 46.2% | 
15 | CCN(CCN)Cc1cccc(C#N)c1Cl | 93.1% | 
16 | CCN(CCN)Cc1cc(Br)ccc1Br | 83.4% | 
17 | CCN(CCN)Cc1c(F)ccc(C#N)c1F | 90.4% | 
18 | CCN(CCN)Cc1ccc(F)c(C#N)c1 | 24.1% | 
19 | CCN(CCN)Cc1cccc(C(F)(F)F)c1 | 16.9% | 
20 | CCN(CCN)Cc1cccc(C#N)c1F | 79.7% | 
21 | CCN(CCN)C1(c2cccc(Br)c2)CC1 | 39.1% | 

Row | SMILES | viability at 10 µM (Cortical neurone [1]) | further results
22 | CCN(CCN)C(C)c1cc(Br)ccc1Cl (configuration not stated) | 81.6% | viability at 10 µM (Cortical neurone [2]): 46.6%
23 | CCN(CCN)Cc1cccc(Br)c1Br | 86.5% | 
24 | CCN(CCN)Cc1c(F)ccc(Br)c1F | 97.9% | 
25 | CCN(CCN)Cc1cc(C#N)ccc1Br | 77.8% | 
26 | CCN(CCN)Cc1cc(C#N)ccc1Cl | 86.5% | 
27 | CCN(CCN)Cc1cccc(F)c1 | 32% | 
28 | CCN(CCN)Cc1c(F)ccc(C#N)c1Cl | 88% | 
29 | CCN(CCN)Cc1cccc(Br)c1Cl | 47.1% | 
30 | CCCN(CCN)Cc1cccc(Br)c1 | 44.6% | 
31 | CCN(CCN)C(C)c1c(F)ccc(C#N)c1Cl (configuration not stated) | 70.5% | viability at 10 µM (Cortical neurone [2]): 64.3%
32 | CCN(CCN)C(C)c1cc(C#N)ccc1Br (configuration not stated) | 55% | 
33 | CCN(CCN)Cc1cccc(Cl)c1 | 44.3% | 
34 | CCN(CCN)C(C)c1cc(C#N)ccc1Cl (configuration not stated) | 77.7% | viability at 10 µM (Cortical neurone [2]): 61.1%
35 | CCN(CCN)Cc1cccc(C#N)c1Br | 76.5% | 
36 | CCN(CCN)C(C)c1cccc(Br)c1F (configuration not stated) | 77% | viability at 10 µM (Cortical neurone [2]): 55.6%
37 | NC1CCCN(Cc2cccc(Br)c2)C1 (configuration not stated) | 33% | 
38 | CCN(CCN)Cc1cc(Br)ccc1Cl | 84.9% | 
39 | CCN(CCN)C(C)c1c(F)ccc(Br)c1F (configuration not stated) | 51.6% | 
40 | CCN(CCN)Cc1cccc(Br)c1F | 86.5% | 
41 | CCN(CCN)C(C)(C)c1cccc(Br)c1 | 52.5% | 
42 | CCN(CCN)Cc1ccc(Br)cc1 | 21.2% | 

Row | SMILES | viability at 10 µM (Cortical neurone [1]) | further results
43 | CCN(CCN)Cc1cc(F)cc(Br)c1 | 18.3% | 
44 | CCN(CCN)Cc1ccc(Cl)c(C#N)c1 | 22.6% | 
45 | CCN(CCN)C(C)c1cccc(C#N)c1 (configuration not stated) | 85.7% | viability at 10 µM (Cortical neurone [2]): 69.7%
46 | CCN(CCN)C(C)c1cccc(C#N)c1F (configuration not stated) | 70.4% | viability at 10 µM (Cortical neurone [2]): 44.5%
47 | CCN(CCN)C(C)c1cc(C#N)ccc1F (configuration not stated) | 82.4% | viability at 10 µM (Cortical neurone [2]): 34.6%
48 | CCN(CCNC)Cc1cccc(Br)c1 | 17.6% | 
49 | CCN(CCN)Cc1ccc(F)c(Br)c1 | 26.6% | 
50 | CCN(CCN)Cc1cccc([N+](=O)[O-])c1 | 36% | 
51 | CCN(CCN)Cc1cc(C#N)ccc1F | 68.1% | 
52 | CCN(CCN)Cc1cc(F)cc(C#N)c1 | 24% | 
53 | NC1CCN(Cc2cccc(Br)c2)C1 (configuration not stated) | 20.1% | 
54 | CCN(CCN)Cc1cccc(I)c1 | 44% | 
55 | CCN(CCN)C(C)c1c(Cl)ccc(C#N)c1F (configuration not stated) | 64.5% | viability at 10 µM (Cortical neurone [2]): 38.8%
56 | CCN(CCN)Cc1cc(C#N)ccc1I | 74.6% | 
57 | CCN(CCN)Cc1c(Cl)ccc(C#N)c1F | 82.9% | 
58 | CCN(CCN(C)C)Cc1cccc(Br)c1 | 18.4% | 
59 | CCN(CCN1CCCC1)Cc1cccc(Br)c1 | 19.3% | 
60 | CCN(CCN)Cc1cc(Br)ccc1F | 87.1% | 
61 | CCN(CCN)C(C)c1cccc(C#N)c1Br (configuration not stated) | 67.4% | viability at 10 µM (Cortical neurone [2]): 43.2%
62 | CCN(CCCN)Cc1cccc(Br)c1 | 10.8% | 
